{"source": "patent US20110033525A1", "about": "“Diterpene Glycosides as Natural Solubilizers” (priority 2008, published 2011)", "key": {"[1]": {"conditions": "in vivo; cited from earlier work"}, "[2]": {"system": "Streptococcus agalactiae ATCC 27956 (McDonald 44)", "assay": "Germicidal and Detergent Sanitizer Test (modified AOAC)", "type": "cell-based", "method": "(§1) Germicidal and Detergent Sanitizer Test. The following challenge organisms were grown in trypticase soy broth for 24 h at 37° C.: Staphylococcus aureus (Gram-positive) ATCC 29740 (Newbould 305), Streptococcus agalactiae (Gram-positive) ATCC 27956 (McDonald 44), Streptococcus dysgalactiae (Gram-positive) ATCC 27957, Streptococcus uberis (Gram-positive) ATCC 27958, Escherichia coli (Gram-negative) ATCC 25922, Pseudomonas aeruginosa (Gram-negative) ATCC 27853, and clinical mastitis isolates of Enterobacter aerogenes (Gram-negative) (216RF) and Klebsiella pneumoniae (Gram-negative) (A37RR) from the Louisiana State University Hill Farm Research Station dairy herd.\n(§2) Bacterial cultures. Aliquots of each 24-h bacterial culture were standardized to a turbidity of a 0.5 McFarland standard, which corresponds to approximately 150×10^6 colony-forming units (cfu) per ml. Aliquots containing 0.02 ml of this culture were added to 1.98 ml aliquots of the curcumin-rubusoside solution. […] This solution was mixed thoroughly, and diluted 1:1000 in saline, and 0.1 ml was plated on duplicate Letheen Agar (Becton Dickinson, Cockeysville, Md.) plates for each microorganism tested. Resultant colonies were counted after incubation of the plates at 37° C. for 24 h.\n(§3) First Experiment. The test compound was a solubilized curcumin water solution. […] The solution was kept in the dark.\n(§4) Second Experiment. For the second experiment, the bacterial cultures were as described above. […] First, 100 mL of a 5% w/v rubusoside water solution was prepared. […] This solution was then autoclaved at 115° C. and 1 atmosphere pressure for 30 min. The autoclaved solution was held in an incubator at 37° C. for 72 hr, and kept in the dark. The solution was adjusted to pH 7.4 by adding appropriate amount of phosphate buffered saline powder and then filtered through a 0.45 μm Nylon filter and analyzed on HPLC."}, "[3]": {"system": "Escherichia coli ATCC 25922", "assay": "Germicidal and Detergent Sanitizer Test (modified AOAC)", "type": "cell-based", "method": "as §1, §2, §3, §4"}, "[4]": {"system": "Pseudomonas aeruginosa ATCC 27853", "assay": "Germicidal and Detergent Sanitizer Test (modified AOAC)", "type": "cell-based", "method": "as §1, §2, §3, §4"}, "[5]": {"system": "Klebsiella pneumoniae (A37RR)", "assay": "Germicidal and Detergent Sanitizer Test (modified AOAC)", "type": "cell-based", "conditions": "solution pH 6.5, 30 Seconds", "method": "as §1, §2, §3, §4"}, "[6]": {"system": "Staphylococcus aureus ATCC 29740 (Newbould 305)", "assay": "Germicidal and Detergent Sanitizer Test (modified AOAC)", "type": "cell-based", "method": "as §1, §2, §3, §4"}, "[7]": {"system": "Streptococcus dysgalactiae ATCC 27957", "assay": "Germicidal and Detergent Sanitizer Test (modified AOAC)", "type": "cell-based", "method": "as §1, §2, §3, §4"}, "[8]": {"system": "Enterobacter aerogenes (A216RF)", "assay": "Germicidal and Detergent Sanitizer Test (modified AOAC)", "type": "cell-based", "conditions": "solution pH 6.5, 30 Seconds", "method": "as §1, §2, §3, §4"}, "[9]": {"system": "Streptococcus uberis ATCC 27958", "assay": "Germicidal and Detergent Sanitizer Test (modified AOAC)", "type": "cell-based", "conditions": "solution pH 6.5, 30 Seconds", "method": "as §1, §2, §3, §4"}, "[10]": {"system": "A549 (human lung) cancer cells", "assay": "MTT cellular proliferation assay, A549", "type": "cell-based", "conditions": "72 hr", "method": "(§5) Paclitaxel and camptothecin were purchased from Sigma Chemicals (St. Louis, Mo.). […] The solution was sonicated for 60 min at 69° C. and then placed in a shaking incubator at 25° C. for 48 hr. The solution was then centrifuged at 4,000×g, and the supernatant was filtered with a 0.2 μm nylon filter. […] The sample was labeled as TXL100. To make an aqueous solution of camptothecin, about 5 mg of camptothecin was weighed into a solution containing 70 mg/ml rubusoside. The solution was sonicated for 60 min at 69° C., and then placed in a shaking incubator at 25° C. for 48 hr. The solution was then centrifuged at 4,000×g and the supernatant was filtered with a 0.2 μm nylon filter. This aqueous solution was analyzed by HPLC and contained 10 μg/ml camptothecin in the presence of 70 mg/ml rubusoside. This sample was labeled as CPT70.\nInhibition of cellular proliferation was assessed by a MTT assay. […] On the day of the staining, MTT solution (3 mg Thiazolyl Blue Tetrazolium Bromide/ml PBS was prepared. To each well, 25 μl MTT solution was directly added. The plate was then incubated for 90 to 120 min. Afterwards, the wells were aspirated completely and carefully. Finally, 50 μl DMSO (dimethyl sulfoxide) was added to each well. The plate was read at 650 nm on a microplate reader. Cell proliferations were calculated as % of the control using the vehicle treatment as the control. […]"}, "[11]": {"system": "PC3 (human prostate) cancer cells", "assay": "MTT cellular proliferation assay, PC3", "type": "cell-based", "conditions": "72 hr", "method": "as §5\n(§6) Inhibition of cellular proliferation was assessed by a MTT assay. Each well of the 96-well plate contained 10^4 cells/100 μl cell culture growth medium. The cells were seeded onto the plate and placed in a 37° C. incubator overnight. On the next day, the compound treatment was set up. A series of dilutions using phosphate buffered saline (PBS) containing 10% FBS (fetal bovine serum) with either the test compound or vehicle with cell culture growth medium was made for each well with a final volume of 200 μl. Each treatment had 8 wells in a column. Prior to the addition of the test compound, the existing medium in each of the wells was aspirated completely and carefully to avoid losing cells. A series of dilutions of the aqueous samples were made ranging from 20 μl to 0.078 μl supplemented with culture media to make a final volume of 200 μl for each well. The plate was placed in a 37° C. incubator for 72 hr. On the day of the staining, MTT solution (3 mg Thiazolyl Blue Tetrazolium Bromide/ml PBS was prepared. To each well, 25 μl MTT solution was directly added. The plate was then incubated for 90 to 120 min. Afterwards, the wells were aspirated completely and carefully. Finally, 50 μl DMSO (dimethyl sulfoxide) was added to each well. The plate was read at 650 nm on a microplate reader. Cell proliferations were calculated as % of the control using the vehicle treatment as the control.\n(§7) Calculations of IC50 in molar concentrations were as follows. […] Thus, 1 μl/ml of TXL solution in the culture medium equaled 17 ng TXL/ml culture medium, which equaled 19.9 nM based on the molecular weight of 854.\n(§8) CPT: The sample concentration of CPT was 10 μg/ml=10 ng/μl, and the molecular weight of camptothecin is 348. Thus, 1 μl/ml of CPT solution in the culture medium equaled 10 ng CPT/ml culture medium, which equaled 28.7 nM based on the molecular weight of 348."}, "[12]": {"assay": "Stability of solubilizers and solubilized water solutions (heat, pH, light, storage)"}, "[13]": {"system": "PANC-1 (human pancreatic) cancer cells", "assay": "MTT cellular proliferation assay, PANC-1", "type": "cell-based", "conditions": "72 hr", "method": "as §5, §6, §7, §8"}, "physchem": {"assay": "physchem", "conditions": "for solubility: 25 °C, thermodynamic from solid", "method": "Solubility test methods: A compound with low solubility was selected and weighed into multiple centrifuge tubes. Each experimental tube received a known amount of the solubilizing agent being tested. The control tubes remained only with the compound. The same volume, 1 mL, unless otherwise indicated, of deionized and distilled water was added to each tube. Alternatively, a set percentage of water solutions containing the solubilizer to be tested (e.g., 5% w/v or 10% w/v) were prepared separately. In these cases, the solubilizer-water solutions were added directly to the tubes containing the low-solubility compound. The tubes were then vortexed briefly and then sonicated for 60 min at temperature of 50° C. unless otherwise indicated. After sonication, the tubes were placed on an orbital shaker at a speed of 80 rpm in an incubator set at 25° C. for at least 24 hr. The tubes were then centrifuged at 4000 rpm for 10 min. The supernatant solution was passed through a 0.2 μm or 0.45 μm filter and analyzed for the concentration of the low-solubility compound, and sometimes the solubilizing compound, by HPLC or UV-Vis spectrophotometer.\nThe system was computer controlled, and the results were analyzed using Empower software. Calibrations curves were constructed using known concentrations of the compounds and were used to quantify the concentrations of the compounds dissolved in solution. A more complete description of the HPLC procedure for some of the diterpene glycosides is found in G. Chou et al., “Quantitative and fingerprint analyses of Chinese sweet tea plant (Rubus suavissimus S. Lee),” J. Agric. Food Chem., vol.\nThe ratio of peak areas was used to calculate the increase in water solubility in the absence or presence of solubilizers."}, "[14]": {"system": "various human cancer cell lines", "conditions": "Kaczirek 2004; read-out: Reported IC50 range; cited from earlier work"}, "[15]": {"conditions": "The Merck Index (1996) or Material Safety Data Sheets; cited from earlier work"}, "[16]": {"conditions": "volume of aqueous sample per ml culture medium"}, "[17]": {"conditions": "Homo sapiens, converted from μl/ml, read-out: IC50"}}, "note": "Like-named read-outs stand apart in the source and are kept apart here.", "data": [{"smiles": "CCCCN(CCCC)CC(O)c1cc(Cl)cc2c1-c1ccc(Cl)cc1/C2=C/c1ccc(Cl)cc1", "note": "(stereo not drawn) [Lumefantrine]", "values": [{"measurement": "Half-life", "setting": "[1]", "result": "72 to 140", "unit": "h"}]}, {"smiles": "COc1cc(/C=C/C(=O)CC(=O)/C=C/c2ccc(O)c(OC)c2)ccc1O", "note": "[Curcumin]", "values": [{"measurement": "Percent reduction", "setting": "[2]; solution pH 6.5, 10 Minutes", "result": 99.7, "unit": "%"}, {"measurement": "Percent reduction", "setting": "[2]; solution pH 6.5, 30 Seconds", "result": 91.7, "unit": "%"}, {"measurement": "Percent reduction", "setting": "[3]; solution pH 6.5, 10 Minutes", "result": 98.54, "unit": "%"}, {"measurement": "Percent reduction", "setting": "[3]; solution pH 6.5, 30 Seconds", "result": "no observed inhibition"}, {"measurement": "Percent reduction", "setting": "[4]; solution pH 6.5, 10 Minutes", "result": 99.99, "unit": "%"}, {"measurement": "Percent reduction", "setting": "[4]; solution pH 6.5, 30 Seconds", "result": 99.99, "unit": "%"}, {"measurement": "Percent reduction", "setting": "[5]", "result": "no observed inhibition"}, {"measurement": "Percent reduction", "setting": "[6]; solution pH 6.5, 10 Minutes", "result": 26.67, "unit": "%"}, {"measurement": "Percent reduction", "setting": "[6]; solution pH 6.5, 30 Seconds", "result": 39.33, "unit": "%"}, {"measurement": "Percent reduction", "setting": "[7]; solution pH 6.5, 10 Minutes", "result": 47.92, "unit": "%"}, {"measurement": "Percent reduction", "setting": "[7]; solution pH 6.5, 30 Seconds", "result": 43.75, "unit": "%"}, {"measurement": "Percent reduction", "setting": "[8]", "result": "no observed inhibition"}, {"measurement": "Percent reduction", "setting": "[9]", "result": "no observed inhibition"}]}, {"smiles": "CC[C@@]1(O)C(=O)OCc2c1cc1n(c2=O)Cc2cc3ccccc3nc2-1", "note": "[Camptothecin]", "values": [{"measurement": "IC50", "setting": "[10]; [16]", "result": 4.93, "unit": "μl/ml"}, {"measurement": "IC50", "setting": "[10]; [17]", "result": 142, "unit": "nM"}, {"measurement": "IC50", "setting": "[11]; [16]", "result": 1.03, "unit": "μl/ml"}, {"measurement": "IC50", "setting": "[11]; [17]", "result": 29.6, "unit": "nM"}, {"measurement": "Stability of rubusoside water solution at room temperature", "setting": "[12]", "result": "stable at room temperature for at least two weeks"}, {"measurement": "IC50", "setting": "[13]; [16]", "result": 1.91, "unit": "μl/ml"}, {"measurement": "IC50", "setting": "[13]; [17]", "result": 54.9, "unit": "nM"}, {"measurement": "Concentration dissolved in rubusoside water solution", "setting": "physchem; 70 mg (109 mM) rubusoside", "result": 144, "unit": "µM"}, {"measurement": "Concentration dissolved in rubusoside water solution", "setting": "physchem; 70 mg rubusoside (70 mg/ml, 109 mM)", "result": 50, "unit": "µg/mL"}, {"measurement": "solubility", "setting": "physchem; aqueous with cosolvent or surfactant or cyclodextrin, Solubility in water with solubilizer, natural solubilizer (rubusoside) 20% w/v (200 mg in 1 ml)", "result": 144, "unit": "µg/mL"}, {"measurement": "solubility", "setting": "physchem; water, Solubility of CPT, Table 4, rubusoside amount as in the label", "result": 0.4, "unit": "µg/mL"}, {"measurement": "IC50", "setting": "[14]", "result": "10 to 3500", "unit": "nM"}, {"measurement": "Water solubility in words", "setting": "[15]", "result": "insoluble"}]}]}
